From patent US8685924B2, “Preventives/remedies for stress urinary incontinence and method of screening the same” (Takeda Pharmaceutical Company Limited, priority 2004, dated 2014)

Tests used:
Type in all cases: in vivo, rat
[1] = test system: urethane-anesthetized female rats; assay: Leak point pressure by abdominal wall-electrically stimulating method, serotonin 5-HT receptor agonists (Example 3); settings: for leak point pressure after drug administration / leak point pressure increase / leak point pressure before drug administration: i.v., mean ± SEM; for leak point pressure before drug administration: baseline
Experimental: (§1) SD female rats (body weight 180-350 g) were anesthetized with urethane (Wako Pure Chemical Industries, Ltd.), and the spinal cord was transected at T8-9 level to eliminate the reflex voiding. In addition, the nerve to the iliococcygeus muscle/pubococcygeus muscle on the one side was transected. During operation, halothane (Takeda Pharmaceutical Company Limited) anesthesia was added when necessary. A catheter (PE-90, Clay Adams) was inserted into the bladder and secured with a ligature, and the incised part of each of the abdominal muscle and skin was closed with sutures. The abdominal skin near the diaphragm was incised at two left and right positions to newly expose the abdominal muscle. An Evans Blue dye (Merck) solution was injected into the bladder, and the bladder volume was adjusted to 0.2-0.3 ml. The bladder catheter was connected to a pressure transducer, and the signals of the transducer were sent to a computer via an amplifier (blood pressure amplification unit AP-641G; NIHON KOHDEN) and an analog-to-digital converter (BIOPAC; MP100), and recorded on a hard disc. The data were analyzed on a computer using software (BIOPAC; AcqKnowledge). The exposed abdominal muscle was electrostimulated using an electrostimulator (SEN-3301; NIHON KODEN) and an isolator (SS-202J; NIHON KODEN), and the presence or absence of incontinence from the meatus urethra was observed. The electrostimulation was applied at a voltage of 2.5-50 V, duration of 0.5 milisec, and frequency 50 Hz for 1 sec, thereby gradually increasing the intravesical pressure. The peak intravesical pressure during stimulation of the abdominal wall was measured and, of the trials with observed incontinence, the lowest peak intravesical pressure was defined as the leak point pressure. Serotonin 5-HT receptor agonist, WAY-161503 (5-HT2C receptor agonist), WAY-163909 (5-HT2C receptor agonist), DOI (5-HT2A/2B/2C receptor agonist), mCPP (5-HT2B/2C receptor partial agonist), eltoprazine (5-HT1A/1B/2C receptor partial agonist), 8-OH-DPAT (5-HT1A receptor agonist), sumatryptan (5-HT1B/1D receptor agonist) and BW723C86 (5-HT2B receptor agonist) were intravenously administered, and the leak point pressure was compared before and after the administration. DOI, mCPP and eltoprazine were dissolved in saline, and other drugs were dissolved in DMA/PEG400 (1:1), and they were intravenously administered at 1 ml/kg and 0.5 mg/kg, respectively. Depending on the experiment, RS-102221 (serotonin 5-HT2C receptor antagonist) or SB221284 (serotonin 5-HT2B/2C receptor antagonist) was intravenously administered 5 min before WAY-161503 or WAY-163909 administration, and an antagonistic effect against the WAY-161503 or WAY-163909-induced increment of the leak point pressure was examined. RS-102221 and SB221284 were both dissolved in DMA/PEG400 (1:1) and intravenously administered at 0.5 ml/kg.

[2] = test system: urethane-anesthetized female rats; assay: Antagonism of the leak point pressure increase by WAY-161503 / WAY-163909, abdominal wall-electrically stimulating method (Example 3); settings: for leak point pressure after drug administration / leak point pressure increase / leak point pressure before drug administration: i.v., mean ± SEM; for leak point pressure before drug administration: baseline
Experimental: as §1

[3] = test system: urethane-anesthetized female rats; assay: Leak point pressure by direct compressing of the bladder (Example 4); settings: for leak point pressure after drug administration / leak point pressure increase / leak point pressure before drug administration: i.v., mean ± SEM; for leak point pressure after drug administration: 20 min later; for leak point pressure before drug administration: baseline
Experimental: (§2) SD female rats (body weight 180-350 g) were anesthetized with urethane (Wako Pure Chemical Industries, Ltd.), and halothane (Takeda Pharmaceutical Company Limited) anesthesia was added when necessary during operation.
(§3) The spinal cord was transected at T8-9 level to eliminate the reflex voiding. The lower abdomen was incised in the median line, a catheter for intravesical pressure measurement (PE-90, Clay Adams) was inserted into the bladder and secured with a ligature, and the intravesical pressure was measured via a pressure transducer. Urine was emptized in advance by bilaterally pressing the bladder with two swabs, and a 0.1% Evans blue (Merck) solution (0.4 mL) was injected into the bladder. The bladder was gradually compressed bilaterally with two swabs, and the intravesical pressure upon saline leakage from the urethral orifice was measured and defined as a leak point pressure. The measurement of the leak point pressure was repeated, and the average value of the final five stable measures was taken as the value before drug administration. Thereafter, the drug was intravenously administered, the leak point pressure was measured again 20 min later, and the value after the drug administration was determined. DOI, mCPP and eltoprazine were dissolved in saline, and other drugs were dissolved in DMA/PEG400 (1:1), and intravenously administered at 1 ml/kg and 0.5 mg/kg, respectively. Depending on the experiment, RS-102221 or SB221284 (showing serotonin 5-HT2C receptor antagonist activity) was administered, 5 min later, WAY-161503 or WAY-163909 was administered, leak point pressure was measured 10 min later, and a competitive assay with the action of WAY-161503 or WAY-163909 was performed. RS-102221 and SB221284 were both dissolved in DMA/PEG400 (1:1), and intravenously administered at 0.5 ml/kg.

[4] = test system: urethane-anesthetized female rats; assay: Antagonism of the leak point pressure increase by WAY-161503 / WAY-163909, direct bladder compression method (Example 4); settings: for leak point pressure after drug administration / leak point pressure increase / leak point pressure before drug administration: i.v., mean ± SEM; for leak point pressure before drug administration: baseline
Experimental: as §2, §3

[5] = agonist 0.3 mg/kg, antagonist: solvent
[6] = antagonist 0.1 mg/kg, i.v. 5 min before WAY-161503 0.3 mg/kg
[7] = antagonist 0.3 mg/kg, i.v. 5 min before WAY-161503 0.3 mg/kg
[8] = antagonist 0.1 mg/kg, i.v. 5 min before WAY-163909 0.3 mg/kg
[9] = antagonist 0.3 mg/kg, i.v. 5 min before WAY-163909 0.3 mg/kg
[10] = antagonist alone 0.3 mg/kg, agonist: solvent, WAY-163909 series

## c1cc2c3c(c1)[C@H]1CCC[C@H]1N3CCNC2 [WAY-163909]
[1]; 0.03 mg/kg
  leak point pressure after drug administration: 43.0 ± 6.3 cmH2O
  leak point pressure increase: 3.5 ± 3.1 cmH2O
[1]; 0.1 mg/kg
  leak point pressure after drug administration: 55.5 ± 1.8 cmH2O
  leak point pressure increase: 11.1 ± 3.0 cmH2O
[1]; 0.3 mg/kg
  leak point pressure after drug administration: 55.9 ± 8.5 cmH2O
  leak point pressure increase: 14.4 ± 3.9 cmH2O
[1]; 1 mg/kg
  leak point pressure after drug administration: 67.1 ± 5.2 cmH2O
  leak point pressure increase: 24.0 ± 3.1 cmH2O
[1]; dose group 0.03 mg/kg
  leak point pressure before drug administration: 39.5 ± 4.3 cmH2O
[1]; dose group 0.1 mg/kg
  leak point pressure before drug administration: 44.4 ± 4.5 cmH2O
[1]; dose group 0.3 mg/kg
  leak point pressure before drug administration: 41.6 ± 6.0 cmH2O
[1]; dose group 1 mg/kg
  leak point pressure before drug administration: 43.1 ± 3.4 cmH2O
[1]; intravenous administration
  dose at which a significant effect on the leak point pressure was afforded: not less than 0.1 mg/kg
  effect on leak point pressure: dose-dependently increased the leak point pressure
[2]; [5]
  leak point pressure after drug administration: 57.6 ± 4.5 cmH2O
  leak point pressure increase: 13.7 ± 2.2 cmH2O
  leak point pressure before drug administration: 43.9 ± 4.3 cmH2O
[3]; 0.03 mg/kg
  leak point pressure after drug administration: 73.3 ± 3.9 cmH2O
  leak point pressure increase: 6.6 ± 2.2 cmH2O
[3]; 0.1 mg/kg
  leak point pressure after drug administration: 76.0 ± 2.7 cmH2O
  leak point pressure increase: 11.8 ± 2.0 cmH2O
[3]; 0.3 mg/kg
  leak point pressure after drug administration: 69.9 ± 3.5 cmH2O
  leak point pressure increase: 17.0 ± 1.8 cmH2O
[3]; 1 mg/kg
  leak point pressure after drug administration: 78.7 ± 5.7 cmH2O
  leak point pressure increase: 20.4 ± 4.0 cmH2O
[3]; 3 mg/kg
  leak point pressure after drug administration: 78.7 ± 4.7 cmH2O
  leak point pressure increase: 26.0 ± 3.5 cmH2O
[3]; dose group 0.03 mg/kg
  leak point pressure before drug administration: 66.6 ± 5.1 cmH2O
[3]; dose group 0.1 mg/kg
  leak point pressure before drug administration: 64.2 ± 1.3 cmH2O
[3]; dose group 0.3 mg/kg
  leak point pressure before drug administration: 52.9 ± 3.6 cmH2O
[3]; dose group 1 mg/kg
  leak point pressure before drug administration: 58.4 ± 2.3 cmH2O
[3]; dose group 3 mg/kg
  leak point pressure before drug administration: 52.7 ± 1.4 cmH2O
[3]; intravenous administration
  effect on leak point pressure: dose-dependently increased the leak point pressure
[4]; [5]
  leak point pressure after drug administration: 77.6 ± 3.8 cmH2O
  leak point pressure increase: 15.0 ± 1.1 cmH2O
  leak point pressure before drug administration: 62.6 ± 4.2 cmH2O

## CSc1cc2c(cc1C(F)(F)F)N(C(=O)Nc1cccnc1)CC2 [SB221284]
[2]; against WAY-161503
  suppression of the leak point pressure increasing action: suppressed the leak point pressure increasing action by WAY-161503 significantly
[2]; [6]
  leak point pressure after drug administration: 66.9 ± 9.8 cmH2O
  leak point pressure increase: 13.6 ± 3.8 cmH2O
[2]; [7]
  leak point pressure after drug administration: 46.8 ± 6.2 cmH2O
  leak point pressure increase: −3.6 ± 1.4 cmH2O
[2]; antagonist 0.1 mg/kg, i.v. + WAY-161503 0.3 mg/kg
  leak point pressure before drug administration: 53.3 ± 7.0 cmH2O
[2]; antagonist 0.3 mg/kg, i.v. + WAY-161503 0.3 mg/kg
  leak point pressure before drug administration: 50.4 ± 6.3 cmH2O
[4]; [8]
  leak point pressure after drug administration: 59.4 ± 3.9 cmH2O
  leak point pressure increase: 6.2 ± 3.1 cmH2O
[4]; [9]
  leak point pressure after drug administration: 60.7 ± 3.9 cmH2O
  leak point pressure increase: 0.4 ± 1.7 cmH2O
[4]; [10]
  leak point pressure after drug administration: 63.0 ± 2.0 cmH2O
  leak point pressure increase: −1.2 ± 2.2 cmH2O
  leak point pressure before drug administration: 64.2 ± 1.2 cmH2O
[4]; antagonist 0.1 mg/kg, i.v. + WAY-163909 0.3 mg/kg
  leak point pressure before drug administration: 53.2 ± 3.4 cmH2O
[4]; antagonist 0.3 mg/kg, i.v. + WAY-163909 0.3 mg/kg
  leak point pressure before drug administration: 60.3 ± 4.0 cmH2O
[4]; intravenous, against WAY-163909
  suppression of the leak point pressure increase: significantly suppressed an increase in the leak point pressure by WAY-163909
